What was measured:
Type in all cases: cell-based
[1] = molecular target: T1, Neuronal acetylcholine receptor subunit alpha-7 (Homo sapiens, UniProt P36544); experiment: Agonist activity at human alpha7 nAChR expressed in xenopus oocytes preincubated for 10 mins followed by acetylcholine addition by patch clamp electrophysiological assay
[2] = molecular target: T1, Neuronal acetylcholine receptor subunit alpha-7; experiment: […] to human alpha7 nAChR expressed in xenopus oocytes preincubated for 10 mins followed by acetylcholine addition by patch clamp electrophysiological assay relative to acetylcholine; parameters: concentration or dose not given beside the values
[3] = molecular target: T1, Neuronal acetylcholine receptor subunit alpha-7; experiment: Displacement of [3H]-MLA from human alpha7 nAChR expressed in xenopus oocytes
[4] = molecular target: T1, Neuronal acetylcholine receptor subunit alpha-7; experiment: Displacement of [3H]-MLA from human alpha7 nAChR expressed in xenopus oocytes in presence of alpha7 nAChR positive allosteric modulator PNU-120596

T1 sequence (P36544 whole entry): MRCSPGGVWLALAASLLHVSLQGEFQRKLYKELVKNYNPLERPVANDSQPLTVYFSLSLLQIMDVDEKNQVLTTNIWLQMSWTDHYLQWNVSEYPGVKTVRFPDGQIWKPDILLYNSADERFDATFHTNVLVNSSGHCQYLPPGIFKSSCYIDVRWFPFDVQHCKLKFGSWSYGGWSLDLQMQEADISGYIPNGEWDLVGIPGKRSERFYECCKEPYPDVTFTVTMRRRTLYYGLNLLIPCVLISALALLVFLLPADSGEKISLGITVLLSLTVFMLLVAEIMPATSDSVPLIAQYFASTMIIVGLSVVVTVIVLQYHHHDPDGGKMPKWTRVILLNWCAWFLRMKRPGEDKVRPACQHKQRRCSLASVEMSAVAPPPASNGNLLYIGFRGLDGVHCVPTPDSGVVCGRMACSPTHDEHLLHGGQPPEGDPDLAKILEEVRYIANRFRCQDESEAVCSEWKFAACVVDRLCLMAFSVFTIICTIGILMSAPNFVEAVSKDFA

| Compound | EC50 [1] [µM] | Activity [2] [%] | Ki [3] [µM] | Ki [4] [µM] |
| --- | --- | --- | --- | --- |
| O=C(N[C@H]1CN2CCC1CC2)c1cc2ccc(-c3cccs3)cn2c1 | > 20 | < 1 | – | – |
| O=C(N[C@H]1CN2CCC1CC2)c1cc2c(F)cccn2c1 | 2.83 | 63.7 | – | – |
| Cc1ccccc1-c1ccc2cc(C(=O)N[C@H]3CN4CCC3CC4)cn2c1 | > 20 | < 1 | – | – |
| O=C(N[C@H]1CN2CCC1CC2)c1cc2cccc(Cl)n2c1 | 2.49 | 63.2 | – | – |
| CCOC(=O)c1cc(C(=O)c2ccccc2)n2ccc(C(=O)N[C@H]3CN4CCC3CC4)cc12 | > 20 | < 1 | – | – |
| Cc1ccccc1-c1cccc2cc(C(=O)N[C@H]3CN4CCC3CC4)cn12 | 4.64 | 17.6 | – | – |
| O=C(N[C@H]1CN2CCC1CC2)c1cc(C(=O)c2ccccc2Br)n2ccccc12 | > 20 | < 1 | – | – |
| O=C(N[C@H]1CN2CCC1CC2)c1cc2cc(-c3ccccc3)ccn2c1 | > 20 | < 1 | – | – |
| CC(C)(C)c1ccc(-c2cccc3cc(C(=O)N[C@H]4CN5CCC4CC5)cn23)cc1 | 8.6 | 23.9 | – | – |
| CCOC(=O)c1cc(C(=O)c2ccccc2)n2cccc(C(=O)N[C@H]3CN4CCC3CC4)c12 | > 20 | < 1 | – | – |
| O=C(N[C@H]1CN2CCC1CC2)c1cc2cccc(Cl)c2s1 [ENCENICLINE] | 0.34 | 33.5 | – | – |
| O=C(N[C@H]1CN2CCC1CC2)c1cc2ccc(Cl)cn2c1 | > 20 | < 1 | – | – |
| O=C(N[C@H]1CN2CCC1CC2)c1cc(C(=O)c2ccc(Cl)cc2)n2ccccc12 | > 20 | < 1 | – | – |
| Cc1nc2ccc(F)cn2c1C(=O)N[C@H]1CN2CCC1CC2 | > 20 | < 1 | – | – |
| O=C(N[C@H]1CN2CCC1CC2)c1cc(C(=O)c2ccc3ccccc3c2)n2ccccc12 | > 20 | < 1 | – | – |
| O=C(N[C@H]1CN2CCC1CC2)c1cc2cccc(-c3ccccc3)n2c1 | 3.98 | 59.8 | – | – |
| O=C(N[C@H]1CN2CCC1CC2)c1cc2c(Cl)cccn2c1 | > 20 | < 1 | – | – |
| CN(C)c1cccc(-c2cccc3cc(C(=O)N[C@H]4CN5CCC4CC5)cn23)c1 | > 20 | < 1 | – | – |
| CCOC(=O)c1cc(C(=O)c2cccc([N+](=O)[O-])c2)n2ccc(C(=O)N[C@H]3CN4CCC3CC4)cc12 | > 20 | < 1 | – | – |
| O=C(N[C@H]1CN2CCC1CC2)c1cc2cc(Br)ccn2c1 | 10.5 | 34.7 | – | – |
| O=C(N[C@H]1CN2CCC1CC2)c1cc(C(=O)c2ccc(-c3ccccc3)cc2)n2ccccc12 | > 20 | < 1 | – | – |
| CCOC(=O)c1cc(C(=O)c2cccc(Cl)c2)n2ccc(C(=O)N[C@H]3CN4CCC3CC4)cc12 | > 20 | < 1 | – | – |
| CCOC(=O)c1cc(C(=O)c2ccccc2)n2cc(C(=O)N[C@H]3CN4CCC3CC4)ccc12 | > 20 | < 1 | – | – |
| Cc1cccc(-c2cccc3cc(C(=O)N[C@H]4CN5CCC4CC5)cn23)c1 | 3.99 | 63.9 | – | – |

| Compound | EC50 [1] [µM] | Activity [2] [%] | Ki [3] [µM] | Ki [4] [µM] |
| --- | --- | --- | --- | --- |
| O=C(N[C@H]1CN2CCC1CC2)c1cc(C(=O)c2ccccc2)n2ccccc12 | > 20 | < 1 | – | – |
| CC(C)(C)c1ccc(-c2ccc3cc(C(=O)N[C@H]4CN5CCC4CC5)cn3c2)cc1 | > 20 | < 1 | – | – |
| Cc1cccc2cc(C(=O)N[C@H]3CN4CCC3CC4)cn12 | 2.14 | 66 | – | – |
| O=C(N[C@H]1CN2CCC1CC2)c1cc2cccc(-c3ccsc3)n2c1 | 3.54 | 40.8 | – | – |
| O=C(N[C@H]1CN2CCC1CC2)c1cc(C(=O)c2cccc(Cl)c2)n2ccccc12 | > 20 | < 1 | – | – |
| CCOC(=O)c1cc(C(=O)c2ccc(Cl)c(Cl)c2)n2ccc(C(=O)N[C@H]3CN4CCC3CC4)cc12 | > 20 | < 1 | – | – |
| O=C(N[C@H]1CN2CCC1CC2)c1cc2c(-c3ccccc3)cccn2c1 | > 20 | < 1 | – | – |
| O=C(N[C@H]1CN2CCC1CC2)c1cnc2ccccn12 | > 20 | < 1 | – | – |
| O=C(N[C@H]1CN2CCC1CC2)c1cc(C(=O)c2cccc(Br)c2)n2ccccc12 | > 20 | < 1 | – | – |
| O=C(N[C@H]1CN2CCC1CC2)c1cc2ccccn2c1 | 8.38 | 57.1 | – | – |
| O=C(N[C@H]1CN2CCC1CC2)c1cc2ccc(-c3ccccc3)cn2c1 | > 20 | < 1 | – | – |
| O=C(N[C@H]1CN2CCC1CC2)c1cc2ccc(-c3ccsc3)cn2c1 | > 20 | < 1 | – | – |
| O=C(N[C@H]1CN2CCC1CC2)c1cc2cc(Cl)ccn2c1 | 6.92 | 19.6 | – | – |
| Cc1nc2c(Br)cccn2c1C(=O)N[C@H]1CN2CCC1CC2 | > 20 | < 1 | – | – |
| Cc1cccc(-c2ccc3cc(C(=O)N[C@H]4CN5CCC4CC5)cn3c2)c1 | > 20 | < 1 | – | – |
| O=C(N[C@H]1CN2CCC1CC2)c1cc2c(Br)cccn2c1 | 4.75 | 75.9 | – | – |
| O=C(N[C@H]1CN2CCC1CC2)c1cc2cccc(-c3ccc(-c4ccccc4)cc3)n2c1 | 14.1 | 18 | – | – |
| CCOC(=O)c1cc(C(=O)c2cccc(F)c2)n2ccc(C(=O)N[C@H]3CN4CCC3CC4)cc12 | > 20 | < 1 | – | – |
| O=C(N[C@H]1CN2CCC1CC2)c1cc2ccc(Br)cn2c1 | 9.63 | 86.3 | – | – |
| O=C(N[C@H]1CN2CCC1CC2)c1cc2cccc(Br)n2c1 | – | 64.3 | 0.0149 | 0.0936 |
| CCOC(=O)c1cc(C(=O)c2ccc(F)cc2)n2ccc(C(=O)N[C@H]3CN4CCC3CC4)cc12 | > 20 | < 1 | – | – |
| CCOC(=O)c1cc(C(=O)c2cccc(C(F)(F)F)c2)n2ccc(C(=O)N[C@H]3CN4CCC3CC4)cc12 | > 20 | < 1 | – | – |
| CCOC(=O)c1cc(C(=O)c2ccccc2O)n2ccc(C(=O)N[C@H]3CN4CCC3CC4)cc12 | > 20 | < 1 | – | – |
| O=C(N[C@H]1CN2CCC1CC2)c1cc(C(=O)c2ccccc2F)n2ccccc12 | > 20 | < 1 | – | – |
